Consider three compounds from US8715718B2, “Extracellular matrix production from nanoscale substrate” (Rutgers, The State University of New Jersey, priority 2006, dated 2014).

Data set [1] concerns Human foreskin fibroblasts, HFF. Description: Fibronectin matrix assembly by HFF, immunofluorescence and image analysis. Type of data set: cell-based. The protocol: (§1) Labtek chamber slides (Nalge Nunc International, Rochester, N.Y.) were coated overnight at 4° C. with FNf-ANPs or FNf as described above to attain equivalent display with FNf. […] Fibroblasts were seeded at densities and incubated for times described in each figure legend. […] Samples were then incubated with primary antibodies in blocking buffer (3% BSA) for 1 hour, washed, and further incubated with the appropriate secondary antibodies for 1 hour. Where indicated, cells were also incubated with TexasRed X- or fluoroscein-conjugated phalloidin to visualize F-actin. Cells were examined using a Leica SP/2 Confocal Laser Scanning Microscope.

Data set [2] has the same test system. Description: Cell morphology by F-actin staining and shape factor. Type of data set: cell-based. The protocol:
as §1
To characterize the effect of nanoparticle display of FNf on early cellular responses, adhesion and morphology were examined. […] Next, we extended the culture time of human foreskin fibroblasts (“HFF”) on FNf-ANPs or equivalent FNf, and evaluated cellular morphology. HFF (2.3×10^4 cells/cm^2) were cultured for 5 hours on surfaces prepared as described in Materials and Methods, then stained for F-actin with Texas Red X-conjugated phalloidin. Bar, 40 μm.
(§2) To analyze cellular morphology, shape factors were quantified for all conditions.

The test system is the same in data set [3]. Description: Cell adhesion assay (hexosaminidase). Type of data set: cell-based. The protocol: To quantify cell attachment to FNf-ANPs, 96-well non-tissue culture dishes were coated overnight at 4° C. with FNf-ANPs or FNf as described above. Wells were washed with PBS and blocked with 1% bovine serum albumin. After washing with PBS, HFF were plated at 2.5×10^4 cells/well and incubated for 60 minutes at 37° C. Medium and unbound cells were removed by inversion of the plate and two washes with PBS. Quantification of the number of adherent cells was performed using the hexosaminidase assay. Briefly, substrate composed of a 1:1 mixture of 0.5% Triton-X 100 and 7.5 mM β-nitrophenyl N-acetyl β-D glucosaminide in 0.1 M citrate buffer, pH 5.0, was added to each well and incubated for 90 minutes at 37° C. The reaction was terminated with 50 mM glycine/5 mM EDTA, pH 10.4 and the absorbance read at 405 nm on a multiwell plate reader.
as §2

Data set [4] deals with fibroblasts. Description: Cell attachment to ligand-ANC (hexosaminidase assay). Type of data set: cell-based, human. As to conditions: 1 hour, equal ligand density, differential presentation. The protocol: To quantify cell attachment to ligand-ANC, 96-well non-tissue culture dishes were passively coated overnight at 4° C. with varying ligand density and presentation as described above. Wells were washed with PBS and blocked with 1% bovine serum albumin. After washing, fibroblasts were seeded at 25,000 cells/well and incubated for 1 hour at 37° C. Substrates were washed with PBS to remove unbound cells. Adhered cells were quantified using the hexosaminidase assay. Briefly, a substrate mixture composed of 1 part […] and 1 part 7.5 mM [3-nitrophenyl N-acetyl [3-D glucosaminide (Sigma) in 0.1 M citrate buffer (pH 5.0), was added to each well and incubated for 90 minutes at 37° C. The reaction was terminated with a mixture of 50 mM glycine (Sigma) and 5 mM EDTA (Sigma) (pH 10.4). The absorbance was read at 405 nm on a multiwell plate reader.
Cell attachment is one of the earliest cell anchorage responses to substrates. To examine if the nanoscale presentation of ligand could alter early cell binding and attachment events, fibroblasts were seeded on ligand-adsorbed substrates of three different ligand densities with different presentations (FIG. 7a). […] Cells were incubated for 1 hour, unbound cells were washed, and the number of adherent cells was quantified using the hexosaminidase assay. […]

Data set [5] deals with fibroblasts. Nature of the data set: Cell morphology on ligand-ANC (FITC-phalloidin). In kind it is cell-based, human. The protocol: Cell morphology was examined as a function of differential ligand presentation and nanocarrier size at two time points. Passively adsorbed substrates were prepared as described above. Fibroblasts that were serum deprived at least 12 hours before hand were seeded in serum free media for 1 or 5 hours at 37° C. Substrates were washed after the designated incubation time, and fixed with 3.7% formaldehyde for 15 minutes at room temperature. Substrates were washed again and permeabilized with Triton-X 100 for 15 minutes at room temperature. Substrates were washed, blocked with 1% BSA for 15 minutes at room temperature, washed again, and stained with FITC phalloidin (Molecular Probes) for 20 minutes. Substrates were washed and stored at 4° C. until image acquisition. Images were acquired with a Leica TCS SP/2 at 63×.
The effects of ligand presentation on cytoskeletal morphology were examined by labeling F-actin at two different time points (FIG. 7b). In that experiment, cell morphology was examined of fibroblasts cultured at the optimal ligand density for cell attachment (2.2 μg/cm^2) at 1 hour (left column) and 5 hours (right column) using FITC-phalloidin.

Data set [6] concerns Human foreskin fibroblasts. Nature of the data set: Imaging of fibronectin matrix assembly as a function of carrier size and ligand density. Type of data set: cell-based. As to conditions: serum-free, 24 hours.
Experimental: Substrates with equal levels of ligand but differential presentation were adsorbed in 8-well Labtek chamber slides overnight at 4° C. Substrates were then washed generously with PBS and blocked with BSA for 1 hour at 37° C. Fibroblasts were serum-starved at least 12 hours prior to trypsinization and re-plated at a density of 35,000 cells per well in serum free media. Cells were then cultured for 24 hours at 37° C. After 24 hour incubation, media was removed and substrates were washed with DPBS with calcium and magnesium. Cells were fixed with 1% formaldehyde for 9 minutes and washed with DPBS with calcium and magnesium. Cells were permeabilized with Triton-X 100 for 15 minutes and washed with DPBS with calcium and magnesium and blocked with 1% BSA for 1 hour at 37° C. Substrates were washed and primary antibody IST-4 (Sigma) for fibronectin that binds to the 5th type III repeat of human plasma fibronectin was incubated at a 1:100 dilution in PBS overnight at 4° C. Substrates were washed and incubated with FITC-conjugated donkey anti-mouse IgG (Jackson Immunolabs, West Grove, Pa.) at a 1:200 dilution for 30 minutes at room temperature, and were then washed and incubated with Texas-red phalloidin (Molecular Probes, Eugene, Oreg.) for 20 minutes at room temperature. Substrates were washed and stored at 4° C. until image acquisition. […]

As to `C[C@@H](N)[C@H]1CC[C@H](C(=O)Nc2ccncc2)CC1` [Y27632], the “effect on FNf-ANP induced matrix assembly by HFF” value in data set [1] (3 μM Y27632 added 2 hours after seeding on FNf-ANP 1.70 μg/cm^2, overnight) is on record as “abrogated”. The “fibronectin matrix fibrils in the extracellular space compared to control conditions” value in data set [1] (HFF on FNf-ANP treated with Y27632, image analysis) is “significantly decreased levels”.

For “FNf: recombinant GST fusion of fibronectin fragment comprising repeats III9 and III10, adsorbed alone as comparator”, the “cell spreading (morphology)” value in data set [2] (45 minutes post seeding) was “minimally spread”. Moreover, in data set [2] (5 hours of culture, F-actin staining), the cell morphology entry is reported as “flattened, well-spread appearance”. Moreover, the “shape factor, (perimeter)^2/(4π(area))” value in data set [2] (5 hours, about 25 cells per condition, all FNf densities) is on record as “around 4”. Moreover, in data set [3] (60 minutes, lowest amount of ligand tested), the cell attachment result is “no detectable attachment”. Moreover, the “cellular adhesion over the FNf concentration range” value in data set [3] (adsorbed FNf up to the highest concentration) was “no significant increase in cellular adhesion”. For the same compound, the “deposition of fibronectin into the ECM when presented via the culture medium” value in data set [1] (HFF on bare coverglass, ligand added to media, overnight) was “not sufficient”. Besides, the “cell attachment at a specific ligand density” value in the data set with fibroblasts [4] is on record as “significant attachment, but to a lesser degree”. The “cell spreading / morphology at 1 hour” value with fibroblasts [5] (2.2 μg/cm^2, 1 hour) was “some filopodial projections”. For the same compound, in the data set on fibroblasts [5] (2.2 μg/cm^2, 5 hours), the “cell morphology at 5 hours” value is recorded as “well-spread with well defined stress fibers”.

In the case of “whole length mouse fibronectin: whole length mouse fibronectin (Innovative Research) adsorbed as control substrate”, the “fibronectin fibrils on control substrates” value in data set [6] is on record as “Fibrils were not seen”. Moreover, the “cell spreading / morphology on control substrates” value in the data set with fibroblasts [5] (control substrates) is given as “polarized morphology consistent with migrating cells”.
